Experimental data taken from patent publication US20140205569A1, “METHODS AND COMPOSITIONS FOR PREVENTING AND TREATING OSTEOARTHRITIS” (priority 2010, published 2014).

Columns and labels:
canine chondrocytes = test: Quantitative PCR expression of osteoarthritis-related genes in fatty-acid-enriched canine chondrocytes in alginate beads, stimulated with SMNCM; assay type: cell-based; details: fatty acid 50 μM, 3 weeks, 3rd week with 10% SMNCM; normalized to cyclophilin A; N=4
Experimental: Canine cartilage was digested in a 37° C. shaking water bath using the following enzymes: trypsin (0.25%) for 25 minutes, hyaluronidase (150U/ml) for 1 hour, and collagenase (0.78%) overnight. Digested cartilage was filtered to obtain chondrocytes. Chondrocytes were expanded in monolayer culture with complete media. Composition of the complete media is Dulbecco's Modified Eagle Medium (DMEM)/F12 supplemented with 10% FBS, 1% P/S (100 U/mL penicillin and 100 μg/mL streptomycin) and 50 μg/ml ascorbic acid. Reaching subconfluence, chondrocytes were detached with 0.05% trypsin and cryopreserved. After cryopreservation, canine chondrocytes were expanded in a monolayer and, after reaching subconfluence, cells were trypsinized and subsequently immobilized in alginate beads. Cells suspended in complete media +3% alginate were dropped from a 18-gauge syringe into calcium chloride (120 mM) to form “beads.” Chondrocyte beads were cultured in complete media and media was changed every 2 or 3 days. At the end of the treatment, the chondrocyte beads were dissolved in sodium citrate (55 mM in 0.15 M NaCl). Suspensions were centrifuged at 2620 rpm for 5 minutes. Cells were washed with phosphate buffer and centrifuged again at 2620 rpm for 5 minutes. One mL RNAqueous™ lysis binding solution (Ambion, Austin, Tex.) was added to the isolated canine chondrocyte pellet, mixed thoroughly and stored at −80° C. until RNA isolation could be performed.
Samples were vortexed and homogenized using a Quiashredder column (Qiagen, Valencia, Calif.) according to manufacturer's directions. The homogenized lysate was collected and 1 equal volume of 64% ethanol was added to it. This mixture was then applied to an RNAqueous™ filter cartridge, 700 uL at a time, and centrifuged for 1 minute at 10,000 rpm. The cartridge was washed using 700 uL wash solution #1 and 500 uL wash solution #2/3 with centrifugation at 10,000 rpm for 1 minute for each wash. The filter cartridge was dried by centrifugation (10,000 rpm) for 1 minute. RNA was eluted 3 times by centrifugation (as above) using 30 uL aliquots of 95-100° C. elution solution. The resulting RNA was DNAse-treated and quantitated in a Beckman DU 640B spectrophotometer (Beckman Coulter, Inc., Brea, Calif.) at 260 nm. Additionally, quantity and quality were assessed using a bioanalyzer (Agilent, Santa Clara, Calif.) according to manufacturer's directions.
Stimulated monocyte neutrophil conditioned media (SMNCM) was made by isolating monocytes and neutrophils from canine whole blood using NycoPrep™ according to the manufacturer's directions. Monocytes and neutrophils were stimulated with lipopolysaccharide (20 ng/mL) for 72 hours. The resulting supernatant was used as SMNCM in cell culture experimentation (SMNCM made up 10% of media used during experimentation and is kept in frozen aliquots).
Chondrocytes were enriched with a fatty acid at 50 μM just after they were enclosed in beads. FBS and ethanol were used as a vehicle. Once the enriched media were prepared, ethanol represented less than 0.1%. Cells were enriched with either arachidonic acid (AA) and dihomo-γ-linolenic acid for 3 weeks total in complete media. The 3rd week the enriched media also contained 10% stimulated monocyte neutrophil conditioned media (SMNCM). Chondrocyte beads were dissolved at the end of the experiment.
All samples were run singularly against each primer/probe set to determine what standard curve should be used. Standard curves were generated using serial dilutions of liver RNA or RNA from experimental samples. […] Values were normalized to cyclophilin A levels as determined by quantitative PCR. Inductions were calculated from each of the lowest sample's normalized value. N=4 for all treatments.
Values represent relative average induction values. […]

Prostaglandin E2 (PGE2) = test: PGE2 levels in chondrocyte media by enzyme immunoassay, per cell; assay type: cell-based, canine; details: for PGE2 levels from chondrocyte media, Avg / PGE2 levels from chondrocyte media: fatty acid 50 μM; for PGE2 levels from chondrocyte media, Avg: average of four chondrocyte batches
Experimental: Canine cartilage was digested in a 37° C. shaking water bath using the following enzymes: trypsin (0.25%) for 25 minutes, hyaluronidase (150U/ml) for 1 hour, and collagenase (0.78%) overnight. Digested cartilage was filtered to obtain chondrocytes. Chondrocytes were expanded in monolayer culture with complete media. Composition of the complete media is Dulbecco's Modified Eagle Medium (DMEM)/F12 supplemented with 10% FBS, 1% P/S (100 U/mL penicillin and 100 μg/mL streptomycin) and 50 μg/ml ascorbic acid. Reaching subconfluence, chondrocytes were detached with 0.05% trypsin and cryopreserved. After cryopreservation, canine chondrocytes were expanded in a monolayer and, after reaching subconfluence, cells were trypsinized and subsequently immobilized in alginate beads. Cells suspended in complete media +3% alginate were dropped from a 18-gauge syringe into calcium chloride (120 mM) to form “beads.” Chondrocyte beads were cultured in complete media and media was changed every 2 or 3 days. At the end of the treatment, the chondrocyte beads were dissolved in sodium citrate (55 mM in 0.15 M NaCl). Suspensions were centrifuged at 2620 rpm for 5 minutes. Cells were washed with phosphate buffer and centrifuged again at 2620 rpm for 5 minutes. One mL RNAqueous™ lysis binding solution (Ambion, Austin, Tex.) was added to the isolated canine chondrocyte pellet, mixed thoroughly and stored at −80° C. until RNA isolation could be performed. Chondrocytes were enriched with a fatty acid at 50 μM just after they were enclosed in beads. FBS and ethanol were used as a vehicle. Once the enriched media were prepared, ethanol represented less than 0.1%. Cells were enriched with either arachidonic acid (AA) and dihomo-γ-linolenic acid for 3 weeks total in complete media. The 3rd week the enriched media also contained 10% stimulated monocyte neutrophil conditioned media (SMNCM). Chondrocyte beads were dissolved at the end of the experiment. Cell media was aliquoted in micro-centrifuge tubes and stored at −80° C. until analysis. Cells were enriched with either arachidonic acid (AA) and dihomo-γ-linolenic acid. Prostaglandin E2 (PGE2) levels were determined using Amersham Prostaglandin Prostaglandin E2 Biotrak Enzyme Immunoassay (EIA, GE Healthcare). Before performing the assay, media samples were thawed then diluted 50 to 250 times in assay buffer. Standards and samples were run in duplicate. The cell suspensions obtained after dissolving the alginate beads were centrifuged. After removing the supernatant, each cell pellet was resuspended in 1 ml of phosphate buffered saline. From each sample, 10 μL was added to the same volume of trypan blue stain before counting with a hemocytometer.

NF-kB = NF-kB activation measured as SEAP release in HT-29 clone 34 cells with or without rhTNF-alpha; assay type: cell-based; details: general statement of the discovery
Experimental: HT-29 clone 34 cells were seeded at 2.0×10^5 cells/well in DMEM with 5% FCS and 1% PS. Cells were incubated for 24 hours at 37° C. at 5% CO2 with or without rhTNF-alpha with dihomo-gamma-linolenic acid (0.1, 0.3, 0.5, 0.7 or 1 mg/ml) in ethanol as a vehicle. NF-kB activity was measured as SEAP release using a Phospha-Light™ System (Applied Biosystems, Bedford, Mass.) per manufacturer's directions.

CCCCC/C=C\C/C=C\C/C=C\C/C=C\CCCC(=O)O [AA, arachidonic acid, reference compound]
Quantitative PCR expression value 2252B (relative average induction) (canine chondrocytes): 4.3
Quantitative PCR expression value ADAMTS-4 (relative average induction) (canine chondrocytes): 1.4
Quantitative PCR expression value ADAMTS-5 (relative average induction) (canine chondrocytes): 3.0
Quantitative PCR expression value CYTL-1 (relative average induction) (canine chondrocytes): 18.1
Quantitative PCR expression value GRIA-4 (relative average induction) (canine chondrocytes): 5.0
Quantitative PCR expression value IGF-2 (relative average induction) (canine chondrocytes): 14.7
Quantitative PCR expression value IL-1 (relative average induction) (canine chondrocytes): 4.1
Quantitative PCR expression value IL-6 (relative average induction) (canine chondrocytes): 4.8
Quantitative PCR expression value IL-8 (relative average induction) (canine chondrocytes): 3.0
Quantitative PCR expression value MMP-2 (relative average induction) (canine chondrocytes): 1.8
Quantitative PCR expression value MMP-9 (relative average induction) (canine chondrocytes): 9.5
Quantitative PCR expression value MMP-13 (relative average induction) (canine chondrocytes): 2.7
Quantitative PCR expression value PC-2A (relative average induction) (canine chondrocytes): 4.5
Quantitative PCR expression value SOX-9 (relative average induction) (canine chondrocytes): 1.9
Quantitative PCR expression value TIMP-1 (relative average induction) (canine chondrocytes): 3.5
Quantitative PCR expression value TIMP-2 (relative average induction) (canine chondrocytes): 1.6
Quantitative PCR expression value TNF-alpha (relative average induction) (canine chondrocytes): 26.4
PGE2 levels from chondrocyte media, Avg (Prostaglandin E2 (PGE2)): 1414 fg/ml/cell
PGE2 levels from chondrocyte media (Prostaglandin E2 (PGE2); chondrocyte batch 1084): 957 fg/ml/cell
PGE2 levels from chondrocyte media (Prostaglandin E2 (PGE2); chondrocyte batch 31010): 473 fg/ml/cell
PGE2 levels from chondrocyte media (Prostaglandin E2 (PGE2); chondrocyte batch 31510): 274 fg/ml/cell
PGE2 levels from chondrocyte media (Prostaglandin E2 (PGE2); chondrocyte batch 41210): 3950 fg/ml/cell

CCCCC/C=C\C/C=C\C/C=C\CCCCCCC(=O)O [DGLA, dihomo-γ-linolenic acid]
Quantitative PCR expression value 2252B (relative average induction) (canine chondrocytes): 4.7
Quantitative PCR expression value ADAMTS-4 (relative average induction) (canine chondrocytes): 1.6
Quantitative PCR expression value ADAMTS-5 (relative average induction) (canine chondrocytes): 2.8
Quantitative PCR expression value CYTL-1 (relative average induction) (canine chondrocytes): 18.0
Quantitative PCR expression value GRIA-4 (relative average induction) (canine chondrocytes): 4.2
Quantitative PCR expression value IGF-2 (relative average induction) (canine chondrocytes): 15.9
Quantitative PCR expression value IL-1 (relative average induction) (canine chondrocytes): 2.4
Quantitative PCR expression value IL-6 (relative average induction) (canine chondrocytes): 3.9
Quantitative PCR expression value IL-8 (relative average induction) (canine chondrocytes): 3.1
Quantitative PCR expression value MMP-2 (relative average induction) (canine chondrocytes): 1.6
Quantitative PCR expression value MMP-9 (relative average induction) (canine chondrocytes): 22.9
Quantitative PCR expression value MMP-13 (relative average induction) (canine chondrocytes): 2.1
Quantitative PCR expression value PC-2A (relative average induction) (canine chondrocytes): 5.2
Quantitative PCR expression value SOX-9 (relative average induction) (canine chondrocytes): 1.9
Quantitative PCR expression value TIMP-1 (relative average induction) (canine chondrocytes): 3.7
Quantitative PCR expression value TIMP-2 (relative average induction) (canine chondrocytes): 1.6
Quantitative PCR expression value TNF-alpha (relative average induction) (canine chondrocytes): 18.8
Effect on NF-kB activation (in words) (NF-kB): inhibit NF-kB activation
PGE2 % Decrease (Prostaglandin E2 (PGE2); 50 μM DGLA versus 50 μM AA, chondrocyte batch 1084): 16%
PGE2 % Decrease (Prostaglandin E2 (PGE2); 50 μM DGLA versus 50 μM AA, chondrocyte batch 31010): 30%
PGE2 % Decrease (Prostaglandin E2 (PGE2); 50 μM DGLA versus 50 μM AA, chondrocyte batch 31510): 34%
PGE2 % Decrease (Prostaglandin E2 (PGE2); 50 μM DGLA versus 50 μM AA, chondrocyte batch 41210): 73%
PGE2 % Decrease, Avg (Prostaglandin E2 (PGE2); 50 μM DGLA versus 50 μM AA, from the batch averages): 58%
PGE2 levels from chondrocyte media, Avg (Prostaglandin E2 (PGE2)): 598 fg/ml/cell
PGE2 levels from chondrocyte media (Prostaglandin E2 (PGE2); chondrocyte batch 1084): 800 fg/ml/cell
PGE2 levels from chondrocyte media (Prostaglandin E2 (PGE2); chondrocyte batch 31010): 331 fg/ml/cell
PGE2 levels from chondrocyte media (Prostaglandin E2 (PGE2); chondrocyte batch 31510): 182 fg/ml/cell
PGE2 levels from chondrocyte media (Prostaglandin E2 (PGE2); chondrocyte batch 41210): 1080 fg/ml/cell
Effect on inflammatory mediators (in words) (Prostaglandin E2 (PGE2); general statement of the discovery): reduce inflammatory mediators
